Our source for the Km and kcat values is paper PMC4535380, “Overproduction of pro-transglutaminase from Streptomyces hygroscopicus in Yarrowia lipolytica and its biochemical characterization” (BMC Biotechnology, 2015).

Format in all cases: biochemical, Streptomyces hygroscopicus
Series [1] has as its system T1, activated pro-TGase.
T1 construct: pro-TGase behind XPR2 pre signal, secreted by Yarrowia lipolytica Po1h (pINA1297), N-glycosylated; no tag mentioned
In words: colorimetric hydroxamate assay at […] nm, Lineweaver-Burk. To be noted: hydroxylamine co-substrate (assay b48), 50 mmol/L Tris-HCl pH 6.0; substrate 6-30 mmol/L (below Km); dispase-activated; read-out: N160Q/N355Q.

The subject of series [2] is T1, activated pro-TGase. The description is as above. The settings on record: hydroxylamine co-substrate (assay b48), 50 mmol/L Tris-HCl pH 6.0; substrate 6-30 mmol/L (below Km); dispase-activated; read-out: N160Q.
Series [3] deals with T1, activated pro-TGase. Described as above. The settings on record: hydroxylamine co-substrate (assay b48), 50 mmol/L Tris-HCl pH 6.0; substrate 6-30 mmol/L (below Km); dispase-activated; read-out: N355Q.
In series [4] the test system is T2, NC(=O)CC[C@H](NC(=O)OCc1ccccc1)C(=O)NCC(=O)O.
T2 construct: pro-TGase behind XPR2 pre signal, secreted by Yarrowia lipolytica Po1h (pINA1297), N-glycosylated; no tag mentioned
Kind of series: purified protein. To be noted: hydroxylamine co-substrate (assay b48), 50 mmol/L Tris-HCl pH 6.0, substrate 6-30 mmol/L (below Km), dispase-activated, 37.0 °C.

A word on the kcat: it is the maximal rate divided by the concentration of active sites.

Like-named read-outs stand apart in the source and are kept apart here. Peptide text beside a SMILES is read from it. * marks the point of attachment. Cbz = O=C(OCc1ccccc1)*

On to `NC(=O)CC[C@H](NC(=O)OCc1ccccc1)C(=O)NCC(=O)O` [N-CBZ-Gln-Gly] (Cbz-Gln-Gly-OH), for which the Km was determined as 48.4 ± 2.4 mM in series [1], 47 ± 1.5 mM in series [2] and 54.7 ± 2.1 mM in series [3].

On to “activated pro-TGase (wild type) (Streptomyces hygroscopicus)”, for which, in series [4], the Km was 59.5 ± 2.3 mM and the turnover number (kcat) is 31.5 ± 1.7 s⁻¹.
